We go through 2 molecules from article PMC3740683, “ML212: A small-molecule probe for investigating fluconazole resistance mechanisms in Candida albicans” (Beilstein Journal of Organic Chemistry, 2013).

SMILES strings stand for the structures. Converted amounts (≈) assume the structure as drawn. Like-named read-outs stand apart in the source and are kept apart here. Some results are limits rather than exact numbers.

A short description of one data set: Solubility in PBS. The class given is physicochemical. Particulars: aqueous buffer.
Another data set has as its system C. albicans CaCi-8. The data set is described as follows: Secondary assay 1: CaCi-8 with 8 µg/mL fluconazole (Alamar Blue growth). The class given is cell-based, Candida albicans. Particulars: Candida albicans. The method, then: All of the compounds prepared above were evaluated for their ability to chemosensitize the C. albicans test strains CaCi-2 and CaCi-8 towards fluconazole. […] The DMSO/fluconazole combination served as an internal control. […]
(1/OD measured) × (desired final volume of inoculum) × 0.3 = volume of fungal culture (µL) to add to desired volume of growth medium. When added to media in wells, this yields a calculated starting OD of the fungal inoculum of 0.00015. […]
3) Use a Thermo Combi nL to dispense 20 µL/well of assay media into all wells. […]
EnVision (Perkin Elmer) plate reader setup: Ex 544 nm, Em 590 nm, bandwidth 12 nm, top read.
Secondary assay 1: CaCi-8 with 8 µg/mL fluconazole […]
35808016); geldanamycin (AG Scientific Catalog no. […]
PBS w/o calcium and magnesium (Cellgro Catalog no. 21-040-CV)
(§1) Synthetic defined growth medium
(§2) RPMI 1640 medium, (powder without sodium bicarbonate; Invitrogen Catalog no. […]
no. 028K0760); glucose 40% (w/v) in water (Sigma Catalog no. G-5400); MOPS buffer […]
1) Prepare 1× RPMI medium by dissolving 10.4 g powdered medium in 800 mL […]
(§3) 2) Add 34.52 g MOPS. While stirring, adjust pH to 7.0 with 10 N NaOH.
(§4) 3) Add 10 mL uridine solution, 50 mL glucose solution, adjust final volume to 1000 […]
Test strain: C. albicans CaCi-8
1) Inoculate 500 µL of strain from cryopreserved stock into a 250 mL shaker flask containing 30 mL growth medium. Shake at 30 °C overnight (16 hours).
2) Read OD 600 of 1 mL of fungal culture in a cuvette using a standard optical density reader (Eppendorf BioPhotometer Plus), with growth medium as a […]
3) Dilute to a desired volume of fungal inoculum according to following formula: […]
1) Add fluconazole stock solution to fungal inoculum to achieve 8 µg/mL.
2) Add Pen/Strep to media to 1% concentration.
4) Dispense geldanamycin in positive control wells using Thermo Combi nL for a final concentration of 3 µM.
5) Then, pin 100 nL of test compound from compound plates into assay plates using a CyBi-Well pin tool.
6) Dispense 20 µL/well of culture into the assay media in all wells.
7) Incubate the plates in a humidified (90% humidity) Liconic incubator at 37 °C without agitation for 48 hours.
8) Dilute Alamar Blue 1:40 in Ca/Mg-free PBS.
9) To all plates, add 5 µL/well of the diluted Alamar Blue to plates to a final dilution […]
10) Incubate the plates for 2 hours. […]
In general terms: Resazurin is reduced to fluorescent resorufin, in cell work by metabolically active cells.

The nature of data set [1]: Secondary assay 3: fibroblast toxicity. The data set is classed as cell-based. Particulars: mouse, NIH-3T3 fibroblasts, murine 3T3 fibroblasts. The method, then: 11) Read relative fluorescence intensity (RFU) of wells on a standard plate reader as […]
measure of relative fungal growth. EnVision (Perkin Elmer) plate reader settings: […]
Secondary assay 3: fibroblast toxicity
Clear, flat-bottom, black, 384-well plates (Corning Catalog no. 3712BC Lot no.
35808016); geldanamycin (AG Scientific Catalog no. G-1047) 15 mM stock solution in […]
DMSO; fluconazole (Sequoia Research Ltd.) 2 mg/mL stock solution in PBS; Alamar […]
Blue (AG Scientific Catalog no. DAL1100, Lot no. 151016SA); PBS w/o calcium and […]
magnesium (Cellgro Catalog no. 21-040-CV)
Optimem medium (Invitrogen Catalog no. 31985-070; Lot no. 548536); 2.5% (v/v) fetal […]
bovine serum (Hyclone Catalog no.30071.03; Lot no. ARF26748); 1% (v/v) Pen/Strep […]
Test strain: NIH-3T3 mammalian fibroblasts (ATCC CRL No. 1658) […]
1) Plate cells in 384-well plates at 6,000 cells/well in 20 µL assay medium.
2) Incubate plates overnight at 37 °C under 5% CO2.
1) After overnight culture, pin compounds into wells at 100 nL/well using the CyBio […]
CyBi-Well pinning instrument.
2) After pinning compounds, add 20 µL of assay medium supplemented with […]
fluconazole to each well. […]
6) Read the relative fluorescence intensity (RFU) of wells on a standard plate reader as a measure of relative cell growth. EnVision (Perkin Elmer) plate reader […]
setup: Ex 544 nm, Em […], bandwidth12 nm, top read.

The subject of another data set is C. albicans CaCi-2. Kind of data set: Primary screen and dose-response retest: CaCi-2 with 8 µg/mL fluconazole (Alamar Blue growth). The class given is cell-based, Candida albicans. Particulars: Candida albicans, CACI2. The protocol: All of the compounds prepared above were evaluated for their ability to chemosensitize the C. albicans test strains CaCi-2 and CaCi-8 towards fluconazole. […] The DMSO/fluconazole combination served as an internal control.
Protocols for cellular assays
Primary screen and dose-response retest: CaCi-2 with 8 µg/mL fluconazole […]
Clear, flat-bottom, black, 384-well plates (Corning Catalog no. 3712BC; Lot no. […]
DMSO; Fluconazole (Sequoia Research Products Ltd) 2 mg/mL stock solution in PBS; […]
(AG Scientific Catalog no. DAL 1100; Lot no.151016SA); PBS without calcium and magnesium (Cellgro Catalog no. 21-040-CV)
as §1, §2
no. 028KO760); Glucose 40% (w/v) in water (Sigma Catalog no. G-5400); MOPS buffer […]
1) Prepare 1× RPMI medium by dissolving 10.4 grams powdered medium in 800 […]
as §3, §4
Test Strain: C. albicans CaCi-2
1) Inoculate 500 µL of strain from cryopreserved stock into a 250 mL shaker flask containing 30 mL growth medium. Shake at 30 °C overnight.
2) Read OD 600 of 1 mL fungal culture in a cuvette using a standard optical density reader (Eppendorf BioPhotometer Plus), with growth medium as a background […]
3) Dilute to desired volume of fungal inoculums according to the following formula:
(1/OD measured) × (desired final volume of inoculum) × 0.3 = volume of fungal culture (µL) to add to desired volume of growth medium. When added to media in wells, this yields a calculated starting OD of the fungal inoculum of 0.00015.
1) Add fluconazole stock solution to fungal inoculum to achieve a final concentration […]
2) Add Pen/Strep at 0.1 mL per 10 mL media (1% v/v).
3) Use a Thermo Combi nL to dispense 20 µL/well of assay media into all wells.
4) Pin 25 nL test compound from compound plates into assay plates using CyBi- […]
5) Dispense 20 µL/well of culture into the assay media in all wells.
6) Incubate plates in a humidified (90% humidity) Liconic incubator at 37 °C without […]
7) Dilute Alamar Blue Reagent 1:40 in Ca/Mg-free PBS.
8) To all plates, add 5 µL/well of the diluted Alamar to a final dilution factor of 1:200.
9) Incubate the plates for an additional 2 hours.
10) Read the relative fluorescence intensity (RFU) of wells on a standard plate reader as a measure of relative fungal growth. EnVision (Perkin Elmer) plate reader setup: Ex 544 nm, Em 590 nm, bandwidth 12 nm, top read. […]

In the next data set the test system is CaCi-2. On the set-up: method as in PMID 8161633. Particulars: CaCi-2 clinical isolate; cited from earlier work.
The next data set has as its system CaCi-8. More on the design: method as in PMID 8161633. Particulars: CaCi-8 clinical isolate; cited from earlier work.

The solubility is how much of the substance goes into solution per volume. Usually IC50 stands for the concentration needed to halve the response being measured. Consider `COC(=O)Cn1nc(-c2ccccc2)c2ccccc21` [Compound 1], for which the solubility in the data set “Solubility in PBS” worked out at 79 µM (≈ 21 µg/mL). In addition, the IC50 worked out at 3.5 ± 1.9 µM in the data set on C. albicans CaCi-8 (CACI8, 48 h, read-out: CaCi-8 IC50); 2.3 µM in the data set on C. albicans CaCi-8 (CACI8, read-out: CaCi-8 IC50); 2.2 ± 1 µM in the data set on C. albicans CaCi-2 (37 °C, 48 hours, with test compound and 8 µg/mL (26 µM) fluconazole, average of at least three independent experiments in duplicate, inactive = negligible activity at concentrations below 26 µM); 0.8 µM with C. albicans CaCi-2 (commercial sample, hit revalidation, with 8 µg/mL fluconazole). Further, the IC50 at 48 h in data set [1] was > 26 µM.
With `OC(Cn1cncn1)(Cn1cncn1)c1ccc(F)cc1F` [fluconazole], the “minimum inhibitory concentration (MIC)” value is 2 µg/mL (≈ 6.53 µM) with CaCi-2 and 8 µg/mL (≈ 26.1 µM) with CaCi-8.
